Experimental data reported in ChEMBL document CHEMBL4507293 (2021).

Assays:
[1] = target: cGMP-dependent 3',5'-cyclic phosphodiesterase (Homo sapiens, UniProt O00408); experiment: Biochemical assay (PDE2A)
[2] = tested on: Tyrosine-protein kinase ABL1 (Homo sapiens), P00519 [F317I]; conditions: Compound concentration 100.0 nM
[3] = target: Tyrosine-protein kinase receptor UFO (Homo sapiens) (UniProt P30530); conditions: Compound concentration 100.0 nM
[4] = target: Tyrosine-protein kinase Blk (Homo sapiens) (UniProt P51451); conditions: Compound concentration 100.0 nM
Chain of Tyrosine-protein kinase Blk (Homo sapiens) (P51451 2-505 limits assumed): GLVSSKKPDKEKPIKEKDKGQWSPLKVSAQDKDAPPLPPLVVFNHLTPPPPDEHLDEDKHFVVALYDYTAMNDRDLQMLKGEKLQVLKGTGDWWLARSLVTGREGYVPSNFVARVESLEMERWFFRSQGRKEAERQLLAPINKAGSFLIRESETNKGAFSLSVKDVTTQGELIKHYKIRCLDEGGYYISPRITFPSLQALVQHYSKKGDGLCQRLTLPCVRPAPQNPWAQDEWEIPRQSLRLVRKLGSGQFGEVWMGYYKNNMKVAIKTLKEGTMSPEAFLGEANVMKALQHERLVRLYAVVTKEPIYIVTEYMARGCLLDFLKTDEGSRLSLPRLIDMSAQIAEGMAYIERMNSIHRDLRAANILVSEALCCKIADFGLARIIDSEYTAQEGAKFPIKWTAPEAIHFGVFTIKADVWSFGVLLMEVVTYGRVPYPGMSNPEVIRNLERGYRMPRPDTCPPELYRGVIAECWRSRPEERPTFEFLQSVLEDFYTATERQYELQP

[5] = target: Mitotic checkpoint serine/threonine-protein kinase BUB1 (Homo sapiens) (UniProt O43683); conditions: Compound concentration 100.0 nM
[6] = target: Calcium/calmodulin-dependent protein kinase type II subunit delta (Homo sapiens) (UniProt Q13557); conditions: Compound concentration 100.0 nM
[7] = target: Cyclin-dependent kinase 11B (Homo sapiens) (UniProt P21127); conditions: Compound concentration 100.0 nM
[8] = target: Cyclin-dependent kinase 8 (Homo sapiens) (UniProt P49336); conditions: Compound concentration 100.0 nM
[9] = target: Cyclin-dependent kinase-like 5 (Homo sapiens) (UniProt O76039); conditions: Compound concentration 100.0 nM
[10] = target: Casein kinase I isoform gamma-1 (Homo sapiens) (UniProt Q9HCP0); conditions: Compound concentration 100.0 nM
[11] = target: Death-associated protein kinase 3 (Homo sapiens) (UniProt O43293); conditions: Compound concentration 100.0 nM
[12] = target: Ephrin type-B receptor 1 (Homo sapiens) (UniProt P54762); conditions: Compound concentration 100.0 nM
[13] = tested on: Fibroblast growth factor receptor 3 (Homo sapiens), P22607 [G697C]; conditions: Compound concentration 100.0 nM
[14] = target: Tyrosine-protein kinase Fyn (Homo sapiens) (UniProt P06241); conditions: Compound concentration 100.0 nM
Chain of Tyrosine-protein kinase Fyn (Homo sapiens) (P06241 2-537 limits assumed): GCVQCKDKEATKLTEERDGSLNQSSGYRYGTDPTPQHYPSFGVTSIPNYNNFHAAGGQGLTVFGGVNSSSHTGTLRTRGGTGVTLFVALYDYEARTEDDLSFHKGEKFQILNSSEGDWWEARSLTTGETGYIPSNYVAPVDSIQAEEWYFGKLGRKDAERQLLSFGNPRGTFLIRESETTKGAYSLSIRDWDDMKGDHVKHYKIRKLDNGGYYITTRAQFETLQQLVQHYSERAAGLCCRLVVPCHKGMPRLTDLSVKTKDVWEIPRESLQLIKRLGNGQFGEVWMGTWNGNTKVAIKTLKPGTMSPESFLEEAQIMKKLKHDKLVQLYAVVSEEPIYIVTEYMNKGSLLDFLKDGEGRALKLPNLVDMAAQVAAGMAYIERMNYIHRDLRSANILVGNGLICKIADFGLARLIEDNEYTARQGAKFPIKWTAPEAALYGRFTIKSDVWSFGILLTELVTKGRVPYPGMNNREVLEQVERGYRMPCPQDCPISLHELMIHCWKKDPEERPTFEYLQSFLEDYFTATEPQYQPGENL

[15] = target: G protein-coupled receptor kinase 3 (Homo sapiens) (UniProt P35626); conditions: Compound concentration 100.0 nM
[16] = target: Insulin receptor-related protein (Homo sapiens) (UniProt P14616); conditions: Compound concentration 100.0 nM
[17] = target: Interleukin-1 receptor-associated kinase 1 (Homo sapiens) (UniProt P51617); conditions: Compound concentration 100.0 nM
[18] = tested on: Mast/stem cell growth factor receptor Kit (Homo sapiens), P10721 [L576P]; conditions: Compound concentration 100.0 nM
[19] = target: Tyrosine-protein kinase Lck (Homo sapiens) (UniProt P06239); conditions: Compound concentration 100.0 nM
Chain of Tyrosine-protein kinase Lck (Homo sapiens) (P06239 2-509 limits assumed): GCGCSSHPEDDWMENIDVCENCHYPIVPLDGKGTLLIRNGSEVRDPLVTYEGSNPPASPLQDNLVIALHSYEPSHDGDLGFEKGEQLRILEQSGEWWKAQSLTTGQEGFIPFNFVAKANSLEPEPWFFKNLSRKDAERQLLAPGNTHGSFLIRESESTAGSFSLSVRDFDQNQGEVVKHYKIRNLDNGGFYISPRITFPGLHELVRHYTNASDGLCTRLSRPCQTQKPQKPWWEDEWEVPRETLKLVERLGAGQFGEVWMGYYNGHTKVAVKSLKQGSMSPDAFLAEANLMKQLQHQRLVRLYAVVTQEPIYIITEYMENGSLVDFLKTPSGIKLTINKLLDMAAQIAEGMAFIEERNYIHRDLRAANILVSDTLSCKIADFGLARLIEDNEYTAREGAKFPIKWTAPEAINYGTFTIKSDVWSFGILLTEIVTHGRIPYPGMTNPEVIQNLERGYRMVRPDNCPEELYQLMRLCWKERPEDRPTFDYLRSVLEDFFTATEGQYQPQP

[20] = target: LIM domain kinase 2 (Homo sapiens) (UniProt P53671); conditions: Compound concentration 100.0 nM
[21] = target: Leucine-rich repeat serine/threonine-protein kinase 2 (Homo sapiens) (UniProt Q5S007); conditions: Compound concentration 100.0 nM
[22] = target: Leukocyte tyrosine kinase receptor (Homo sapiens) (UniProt P29376); conditions: Compound concentration 100.0 nM
[23] = target: Mitogen-activated protein kinase kinase kinase 15 (Homo sapiens) (UniProt Q6ZN16); conditions: Compound concentration 100.0 nM
[24] = target: Mitogen-activated protein kinase kinase kinase kinase 4 (Homo sapiens) (UniProt O95819); conditions: Compound concentration 100.0 nM
[25] = target: MAP kinase-activated protein kinase 2 (Homo sapiens) (UniProt P49137); conditions: Compound concentration 100.0 nM
[26] = target: MAP kinase-interacting serine/threonine-protein kinase 1 (Homo sapiens) (UniProt Q9BUB5); conditions: Compound concentration 100.0 nM
[27] = target: Myosin-IIIb (Homo sapiens) (UniProt Q8WXR4); conditions: Compound concentration 100.0 nM
[28] = target: Cyclin-dependent kinase 17 (Homo sapiens) (UniProt Q00537); conditions: Compound concentration 100.0 nM
[29] = target: Cyclin-dependent kinase 18 (Homo sapiens) (UniProt Q07002); conditions: Compound concentration 100.0 nM
Chain of Cyclin-dependent kinase 18 (Homo sapiens) (Q07002 whole entry, canonical isoform): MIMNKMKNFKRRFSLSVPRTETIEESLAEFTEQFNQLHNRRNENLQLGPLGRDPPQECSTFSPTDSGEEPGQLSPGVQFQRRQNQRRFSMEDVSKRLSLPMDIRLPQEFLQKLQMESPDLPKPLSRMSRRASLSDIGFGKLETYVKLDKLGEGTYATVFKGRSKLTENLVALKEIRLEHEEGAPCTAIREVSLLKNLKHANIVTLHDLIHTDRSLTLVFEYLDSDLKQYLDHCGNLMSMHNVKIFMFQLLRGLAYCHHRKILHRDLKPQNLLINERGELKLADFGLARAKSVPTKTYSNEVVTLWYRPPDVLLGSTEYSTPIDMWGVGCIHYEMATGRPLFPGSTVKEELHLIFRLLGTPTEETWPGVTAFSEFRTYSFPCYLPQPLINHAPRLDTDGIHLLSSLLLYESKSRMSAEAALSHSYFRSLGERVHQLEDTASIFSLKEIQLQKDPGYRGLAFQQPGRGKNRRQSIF

[30] = tested on: Phosphatidylinositol 4,5-bisphosphate 3-kinase catalytic subunit alpha isoform (Homo sapiens), P42336 [E542K]; conditions: Compound concentration 100.0 nM
[31] = target: Phosphatidylinositol 4-kinase beta (Homo sapiens) (UniProt Q9UBF8); conditions: Compound concentration 100.0 nM
[32] = target: Serine/threonine-protein kinase PLK1 (Homo sapiens) (UniProt P53350); conditions: Compound concentration 100.0 nM
[33] = target: Serine/threonine-protein kinase D3 (Homo sapiens) (UniProt O94806); conditions: Compound concentration 100.0 nM
[34] = target: Ribosomal protein S6 kinase alpha-3 (Homo sapiens) (UniProt P51812); conditions: Compound concentration 100.0 nM
[35] = target: STE20-like serine/threonine-protein kinase (Homo sapiens) (UniProt Q9H2G2); conditions: Compound concentration 100.0 nM
[36] = target: NUAK family SNF1-like kinase 2 (Homo sapiens) (UniProt Q9H093); conditions: Compound concentration 100.0 nM
[37] = target: SRSF protein kinase 3 (Homo sapiens) (UniProt Q9UPE1); conditions: Compound concentration 100.0 nM
[38] = target: Serine/threonine-protein kinase 36 (Homo sapiens) (UniProt Q9NRP7); conditions: Compound concentration 100.0 nM
Chain of Serine/threonine-protein kinase 36 (Homo sapiens) (Q9NRP7 whole entry): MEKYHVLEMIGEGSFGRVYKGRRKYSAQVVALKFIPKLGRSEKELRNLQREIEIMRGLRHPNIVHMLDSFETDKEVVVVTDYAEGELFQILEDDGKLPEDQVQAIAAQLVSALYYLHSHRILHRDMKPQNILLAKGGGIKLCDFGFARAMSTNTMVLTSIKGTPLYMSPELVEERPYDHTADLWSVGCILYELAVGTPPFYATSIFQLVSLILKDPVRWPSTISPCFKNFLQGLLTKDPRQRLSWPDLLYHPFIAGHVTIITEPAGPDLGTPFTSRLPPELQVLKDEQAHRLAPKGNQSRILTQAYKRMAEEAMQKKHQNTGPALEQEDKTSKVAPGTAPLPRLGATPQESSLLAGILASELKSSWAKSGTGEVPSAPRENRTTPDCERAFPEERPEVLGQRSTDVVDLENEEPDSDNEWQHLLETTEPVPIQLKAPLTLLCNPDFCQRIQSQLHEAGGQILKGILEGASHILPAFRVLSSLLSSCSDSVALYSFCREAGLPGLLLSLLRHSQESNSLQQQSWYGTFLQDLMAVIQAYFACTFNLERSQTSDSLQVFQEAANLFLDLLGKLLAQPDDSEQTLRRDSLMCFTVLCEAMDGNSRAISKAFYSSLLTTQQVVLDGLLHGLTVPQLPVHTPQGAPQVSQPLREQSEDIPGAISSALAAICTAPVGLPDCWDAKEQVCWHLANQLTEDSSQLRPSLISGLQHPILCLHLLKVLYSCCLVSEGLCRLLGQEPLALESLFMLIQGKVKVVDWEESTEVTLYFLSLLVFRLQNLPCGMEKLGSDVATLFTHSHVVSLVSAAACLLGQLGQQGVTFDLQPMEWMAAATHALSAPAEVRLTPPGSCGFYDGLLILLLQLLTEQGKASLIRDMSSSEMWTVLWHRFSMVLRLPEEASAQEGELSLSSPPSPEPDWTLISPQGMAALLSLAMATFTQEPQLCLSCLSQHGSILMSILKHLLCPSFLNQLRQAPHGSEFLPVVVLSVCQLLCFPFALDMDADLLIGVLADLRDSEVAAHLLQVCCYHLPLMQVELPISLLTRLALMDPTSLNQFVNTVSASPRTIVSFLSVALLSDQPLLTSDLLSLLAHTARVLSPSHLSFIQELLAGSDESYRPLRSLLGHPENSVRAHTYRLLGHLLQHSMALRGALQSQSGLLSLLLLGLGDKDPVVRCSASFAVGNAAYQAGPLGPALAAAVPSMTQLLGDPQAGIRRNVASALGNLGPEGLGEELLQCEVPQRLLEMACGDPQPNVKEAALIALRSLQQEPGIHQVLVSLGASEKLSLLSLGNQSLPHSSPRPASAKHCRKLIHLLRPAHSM

[39] = target: Serine/threonine-protein kinase TAO1 (Homo sapiens) (UniProt Q7L7X3); conditions: Compound concentration 100.0 nM
[40] = target: Serine/threonine-protein kinase TAO3 (Homo sapiens) (UniProt Q9H2K8); conditions: Compound concentration 100.0 nM
[41] = target: Serine/threonine-protein kinase TNNI3K (Homo sapiens) (UniProt Q59H18); conditions: Compound concentration 100.0 nM
[42] = target: High affinity nerve growth factor receptor (Homo sapiens) (UniProt P04629); conditions: Compound concentration 100.0 nM
[43] = target: Serine/threonine-protein kinase WNK1 (Homo sapiens) (UniProt Q9H4A3); conditions: Compound concentration 100.0 nM
[44] = target: Histamine H1 receptor (Homo sapiens) (UniProt P35367); conditions: Compound concentration 10.0 uM
Chain of Histamine H1 receptor (Homo sapiens) (P35367 whole entry): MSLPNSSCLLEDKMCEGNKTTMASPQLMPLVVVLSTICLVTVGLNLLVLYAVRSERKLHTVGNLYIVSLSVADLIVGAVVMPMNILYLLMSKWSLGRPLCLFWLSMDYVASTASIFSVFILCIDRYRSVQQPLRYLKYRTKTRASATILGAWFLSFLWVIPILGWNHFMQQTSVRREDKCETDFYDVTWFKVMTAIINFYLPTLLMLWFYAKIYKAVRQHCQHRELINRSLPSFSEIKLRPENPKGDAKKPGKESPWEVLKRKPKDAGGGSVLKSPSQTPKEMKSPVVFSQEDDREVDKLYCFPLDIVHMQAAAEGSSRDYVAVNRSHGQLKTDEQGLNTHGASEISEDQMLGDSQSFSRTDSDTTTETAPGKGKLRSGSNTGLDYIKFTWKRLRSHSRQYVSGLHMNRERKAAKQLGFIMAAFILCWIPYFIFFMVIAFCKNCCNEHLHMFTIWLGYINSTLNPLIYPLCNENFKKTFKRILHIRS

[45] = target: Histamine H4 receptor (Homo sapiens) (UniProt Q9H3N8); conditions: Compound concentration 10.0 uM

Chain of Tyrosine-protein kinase receptor UFO (Homo sapiens) (P30530 whole entry): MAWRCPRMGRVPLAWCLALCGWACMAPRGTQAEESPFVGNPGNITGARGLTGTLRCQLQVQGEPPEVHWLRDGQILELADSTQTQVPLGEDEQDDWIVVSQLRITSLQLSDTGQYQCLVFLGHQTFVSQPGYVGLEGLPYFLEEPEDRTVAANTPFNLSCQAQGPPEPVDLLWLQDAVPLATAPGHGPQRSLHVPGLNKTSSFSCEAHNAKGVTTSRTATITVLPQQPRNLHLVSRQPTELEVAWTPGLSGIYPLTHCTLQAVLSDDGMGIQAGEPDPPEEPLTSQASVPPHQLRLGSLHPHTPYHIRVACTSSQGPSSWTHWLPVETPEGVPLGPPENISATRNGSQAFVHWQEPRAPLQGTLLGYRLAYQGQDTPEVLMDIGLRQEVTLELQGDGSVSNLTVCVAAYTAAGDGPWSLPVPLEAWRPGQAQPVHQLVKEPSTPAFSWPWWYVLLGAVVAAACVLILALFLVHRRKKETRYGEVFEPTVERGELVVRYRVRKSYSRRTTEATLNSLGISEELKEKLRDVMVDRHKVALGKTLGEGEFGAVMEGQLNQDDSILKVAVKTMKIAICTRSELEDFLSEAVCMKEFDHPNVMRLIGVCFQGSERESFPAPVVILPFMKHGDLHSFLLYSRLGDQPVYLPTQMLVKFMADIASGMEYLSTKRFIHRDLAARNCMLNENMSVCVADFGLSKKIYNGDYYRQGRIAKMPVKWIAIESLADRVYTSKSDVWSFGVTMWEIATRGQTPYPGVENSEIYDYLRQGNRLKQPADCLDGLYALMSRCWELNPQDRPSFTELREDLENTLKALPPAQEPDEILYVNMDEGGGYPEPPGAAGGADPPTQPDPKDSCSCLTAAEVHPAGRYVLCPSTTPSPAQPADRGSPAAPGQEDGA

CC(C)CC(=O)N1CCc2nc(-c3ccc(Br)cc3)nc(N(C)Cc3ccccc3)c2C1 [THPP-1-NC]
> 100 µM (not active): Ki [1]
inactive: residual activity [2] 100% | residual activity [3] 63% | residual activity [4] 84% | residual activity [5] 78% | residual activity [6] 100% | residual activity [7] 100% | residual activity [8] 82% | residual activity [9] 100% | residual activity [10] 100% | residual activity [11] 100% | residual activity [12] 100% | residual activity [13] 100% | residual activity [14] 100% | residual activity [15] 100% | residual activity [16] 100% | residual activity [17] 100% | residual activity [18] 94% | residual activity [19] 100% | residual activity [20] 100% | residual activity [21] 100% | residual activity [22] 91% | residual activity [23] 100% | residual activity [24] 84% | residual activity [25] 92% | residual activity [26] 69% | residual activity [27] 78% | residual activity [28] 100% | residual activity [29] 100% | residual activity [30] 100% | residual activity [31] 100% | residual activity [32] 100% | residual activity [33] 100% | residual activity [34] 67% | residual activity [35] 100% | residual activity [36] 100% | residual activity [37] 79% | residual activity [38] 78% | residual activity [39] 100% | residual activity [40] 100% | residual activity [41] 100% | residual activity [42] 100% | residual activity [43] 100% | inhibition [44] 12.6% | inhibition [45] -7.78%

COCCOc1nc(-c2ccc(Cl)nc2)nc2c1CN(C(=O)c1ncn3ccccc13)CC2 [THPP-1]
1.2 µM (not active): Ki [1]
inactive: residual activity [2] 100% | residual activity [3] 90% | residual activity [4] 75% | residual activity [5] 82% | residual activity [6] 100% | residual activity [7] 100% | residual activity [8] 100% | residual activity [9] 100% | residual activity [10] 100% | residual activity [11] 100% | residual activity [12] 100% | residual activity [13] 100% | residual activity [14] 100% | residual activity [15] 100% | residual activity [16] 100% | residual activity [17] 100% | residual activity [18] 100% | residual activity [19] 100% | residual activity [20] 100% | residual activity [21] 100% | residual activity [22] 100% | residual activity [23] 100% | residual activity [24] 73% | residual activity [25] 73% | residual activity [26] 77% | residual activity [27] 67% | residual activity [28] 100% | residual activity [29] 100% | residual activity [30] 87% | residual activity [31] 100% | residual activity [32] 100% | residual activity [33] 94% | residual activity [34] 82% | residual activity [35] 100% | residual activity [36] 100% | residual activity [37] 66% | residual activity [38] 79% | residual activity [39] 100% | residual activity [40] 100% | residual activity [41] 100% | residual activity [42] 100% | residual activity [43] 100% | inhibition [44] 23.9% | inhibition [45] -6.39%
